Data from patent US20110183366A1, “Methods for achieving a protective ACE2 expression level to treat kidney disease and hypertension” (priority 2004, published 2011).
Entries after “also recorded” stand apart in the source; their conditions may differ. Blank lines part the entries; values can stand above or below the compound they belong to.

Experiments:
[1] = test system: ACE and ACE2 in kidney cortex; assay: 7-Mca-YVADAPK(Dnp) fluorescence assay in kidney cortex tissue extracts; format: biochemical, mouse; conditions: for fluorescence signal, % of control: EDTA 1 mmol/L, captopril and MLN-4760 alone or concomitantly
db/m and db/db mice [2] = assay: Glomerular fibronectin staining after chronic ACE2 inhibition; format: in vivo, mouse
Method: Pharmacological ACE2 inhibition in db/m and db/db mice. A specific ACE2 inhibitor, MLN-4760 (kind gift from Millennium Pharmaceuticals, Cambridge, Mass.) was injected to db/m and db/db mice subcutaneously (40-80 mg per kg of body weight (mg/kg/BW), every other day), starting at 8 weeks of age until the mice reached the age of 24 weeks. Vehicle control mice received injections of sterile PBS in the same volume.
Chronic ACE2 inhibition was also associated with an increased glomerular deposition of fibronectin, an extracellular matrix protein. In glomeruli from db/m mice receiving MLN-4760, fibronectin staining was increased as compared to their vehicle-treated db/m counterparts. In db/db mice, the MLN-4760 administration was also associated with an exaggeration of fibronectin staining. The number of glomeruli with strong fibronectin staining was used to semi-quantify the observed changes in kidneys from 12-16 animals in each group.

db/m and db/db mice [3] = assay: Urinary albumin/creatinine ratio during chronic ACE2 inhibition in db/m and db/db mice; format: in vivo, mouse
Source text: Pharmacological ACE2 inhibition in db/m and db/db mice. […] Vehicle control mice received injections of sterile PBS in the same volume. […] Urinary albumin/creatinine ratio. ELISA kits for murine urinary albumin and creatinine companion kits from Exocell were used according to manufacturer's instructions to measure albumin/creatinine ratio in urine samples. Spot urine samples were collected at 8 weeks of age, before initiating the administration of the ACE2 inhibitor, and the AT1 blocker (at 8 weeks of age) and after 12 and 16 weeks of administration of these agents. Statistical analysis. Statistical analysis was performed using unpaired t-test or ANOVA when appropriate. Significance was defined as p<0.05. Data were expressed as mean±SE. The Effect of chronic ACE2 inhibition on albumin excretion and glomerular fibronectin deposition. To determine the extent to which chronic ACE2 inhibition results in increased albuminuria in the db/db mice, a specific ACE2 inhibitor, MLN-4760, was administered to the mice for 16 consecutive weeks starting at 8 weeks of age. At 8 weeks of age, before starting MLN or vehicle administration, db/db mice from both groups had virtually indistinguishable levels of urinary albumin excretion (UAE; 69.5±18 vs. 81±15 μg albumin/mg creatinine, respectively). […] In db/m mice treated with MLN-4760, UAE was higher than in the vehicle-treated db/m controls, but the difference was small and not statistically significant (55±24 vs. 32±3, μg/mg, respectively, p=NS).

[4] = target: T1, human recombinant (hr) ACE2 (Homo sapiens, UniProt Q9BYF1); assay: Fluorescence quenching with 7-Mca-YVADAPK(Dnp) substrate on recombinant ACE2; format: biochemical; conditions: for quenching of fluorescence: hrACE2 20 nmol/L, inhibitor concentration up to 100 μmol/L
T1 construct: purchased R&D Systems
Method: A fluorescent substrate of ACE and ACE2, i.e., 7-Mca-YVADAPK(Dnp) (R&D Systems), was used to concurrently assay ACE and ACE2 protein activity in tissue samples. Cleavage of this substrate by either enzyme removes the 2,4-dinitrophenyl moiety that quenches the fluorescence of the 7-methoxycoumarin moiety, thus resulting in increased fluorescence. To prevent undesirable hydrolysis of the substrate by a range of non-metalloprotease enzymes from mouse tissues, all tests were performed with the addition of an inhibitor cocktail (complete EDTA-free tablets, Roche).
MLN-4760 quenched the signal completely at 1-10 nmol/L, whereas a higher concentration (100 nmol/L) of DX600 was needed to achieve complete quenching of the signal. Therefore, further studies were done using MLN-4760. In tissue extracts, the concentrations of MLN-4760 required for fluorescence quenching were high and more variable.

podocytes in culture = conditions: cited from earlier work

T1 sequence (Q9BYF1 18-805): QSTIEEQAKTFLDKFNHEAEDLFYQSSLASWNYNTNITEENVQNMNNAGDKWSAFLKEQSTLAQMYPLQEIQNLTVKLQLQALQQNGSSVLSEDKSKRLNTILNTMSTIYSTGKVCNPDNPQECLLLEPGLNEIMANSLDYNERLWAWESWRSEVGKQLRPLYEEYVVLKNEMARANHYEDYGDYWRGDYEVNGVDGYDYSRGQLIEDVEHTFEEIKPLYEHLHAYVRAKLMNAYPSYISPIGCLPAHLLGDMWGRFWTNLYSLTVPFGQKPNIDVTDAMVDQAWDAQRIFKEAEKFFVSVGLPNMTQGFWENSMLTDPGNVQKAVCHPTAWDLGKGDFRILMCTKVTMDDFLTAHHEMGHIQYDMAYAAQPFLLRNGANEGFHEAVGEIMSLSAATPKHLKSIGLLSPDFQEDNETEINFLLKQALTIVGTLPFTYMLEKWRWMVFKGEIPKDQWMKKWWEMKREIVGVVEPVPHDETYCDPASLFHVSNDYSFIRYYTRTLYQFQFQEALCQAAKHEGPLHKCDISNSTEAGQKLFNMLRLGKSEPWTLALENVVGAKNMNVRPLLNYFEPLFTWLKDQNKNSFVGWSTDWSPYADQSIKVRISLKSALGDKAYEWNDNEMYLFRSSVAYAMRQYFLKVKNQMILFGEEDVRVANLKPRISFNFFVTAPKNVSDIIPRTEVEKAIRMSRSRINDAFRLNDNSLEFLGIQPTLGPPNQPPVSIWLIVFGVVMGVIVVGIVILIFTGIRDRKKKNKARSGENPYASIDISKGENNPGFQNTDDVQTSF

Compound: O=C(O)CN(CCN(CC(=O)O)CC(=O)O)CC(=O)O [EDTA]
fluorescence signal, % of control [1]: about 16 % of control

concentration for complete quenching of the signal ([4]; hrACE2): 1 to 10 nmol/L
Compound: CC(C)C[C@H](N[C@@H](Cc1cncn1Cc1cc(Cl)cc(Cl)c1)C(=O)O)C(=O)O [MLN-4760, (S,S)-2-{1-carboxy-2-[3-(3,5-dichlorobenzyl)-3H-imidazol4-yl]-ethylamino}-4-methylpentanoic acid]
percentage of glomeruli with strong fibronectin staining (db/m and db/db mice [2]; db/db mice treated with MLN-4760, vehicle 28.5%±6.4): 54.8%±4.6
percentage of glomeruli with strong fibronectin staining (db/m and db/db mice [2]; db/m mice receiving MLN-4760, vehicle 17.3%±5.2): 41.1%±4.1
increase in UAE in comparison to vehicle db/db controls (db/m and db/db mice [3]; db/db mice, 16 weeks of treatment, age 24 weeks): about three-fold
albumin/creatinine ratio (db/m and db/db mice [3]; db/db mice, MLN-4760 s.c. 40-80 mg/kg every other day, after 12 weeks of treatment, vehicle 124±23): 474 ± 166 µg/mg
urinary albumin excretion (UAE) (db/m and db/db mice [3]; db/db mice, after 16 weeks of treatment, age 24 weeks, vehicle 247±53.9): 743 ± 200 µg/mg
urinary albumin excretion (UAE) (db/m and db/db mice [3]; db/m mice treated with MLN-4760, vehicle 32±3, p=NS): 55 ± 24 µg/mg
fluorescence signal, % of control [1]: 46.4±0.7 % of control

quenching of fluorescence [4]: failed to quench fluorescence
Compound: O=C(O)CC(Cc1ccccc1)C(=O)O (stereo not drawn) [benzyl succinate]
reduction of fluorescence signal ([1]; benzyl succinate 100 μmol/L): did not reduce significantly the fluorescence signal

Compound: C[C@H](CS)C(=O)N1CCC[C@H]1C(=O)O [captopril]
effect on stretch-induced increase in ANG II generation (podocytes in culture): did not abrogate the stretch-induced increase in ANG II generation
quenching of fluorescence [4]: failed to quench fluorescence
fluorescence signal, % of control [1]: 24.9±1.1 % of control

Compound: CCCc1nc2c(C)cc(-c3nc4ccccc4n3C)cc2n1Cc1ccc(-c2ccccc2C(=O)O)cc1 [telmisartan]
effect on the increase in urinary albumin associated with the ACE2 inhibitor (db/m and db/db mice [3]; db/db mice, telmisartan 2 mg/kg/day in drinking water together with s.c. MLN-4760): prevented the increase in urinary albumin excretion; also recorded: completely prevented the increase in urinary albumin
